Experimental data taken from patent publication US9995734B2, “Human T cell line assay for evaluating the immunologic identity of glatiramer acetate preparations” (Mylan Inc., priority 2013, dated 2018).
Values joined by “and” are separate entries in the source; they are usually repeats but may differ in a detail not shown here. Identical values can stand only once.

System: Donor 3 GMA T-Cell Lines
Test: ATP proliferation assay (CellTiter Glo), Donor 3 GMA T-cell lines, incl. reactivity to non-canonical GA peptides
Format: cell-based, human
Conditions: for proliferation response to non-canonical GA peptides: 0, 1, 3, 10, 30 μg/mL; for Non-Canonical Peptide Non-Reactivity: proliferation <2 times no antigen control; for Non-Canonical Peptide Reactivity: at least one proliferation value >=2 times no antigen control

poly (Glu-Lys-Tyr; 6:3:1) [GLT 631]
proliferation response to non-canonical GA peptides (165-B5G and 165-E7G, Day 81): responded well | Non-Canonical Peptide Non-Reactivity (165-B5G): GLT 631 | Non-Canonical Peptide Non-Reactivity (165-C5G): GLT 631 | Non-Canonical Peptide Reactivity (165-E7G): GLT 631 | Non-Canonical Peptide Non-Reactivity (165-E9G): GLT 631 | Non-Canonical Peptide Non-Reactivity (165-F5G): GLT 631 | Non-Canonical Peptide Non-Reactivity (165-F10G): GLT 631 | proliferation response to non-canonical GA peptides (165-H11G, Day 50): responded | Non-Canonical Peptide Reactivity (165-H11G): GLT 631 | Reactive T-Cell Line (Donor 3 GMA lines, at least a 50% increase in proliferation relative to a control after stimulation with the non-canonical GA peptide): 165-H11G (Donor 3) | Nonreactive T-Cell Line (Donor 3 GMA lines, stimulation with the non-canonical GA peptide): 165-B5G (Donor 3) and 165-C5G (Donor 3) and 165-C8G (Donor 3) and 165-E7G (Donor 3) and 165-E9G (Donor 3) and 165-F5G (Donor 3) and 165-F10G (Donor 3) | Proliferation (luminescent ATP assay), Mean (T-cell line 165-05G, 1 μg/mL antigen, Day 50 of culturing, No Antigen Value 2149): 1871 RLU | Proliferation (luminescent ATP assay), Mean (T-cell line 165-05G, 3 μg/mL antigen, Day 50 of culturing, No Antigen Value 2149): 2268 RLU | Proliferation (luminescent ATP assay), Mean (T-cell line 165-05G, 10 μg/mL antigen, Day 50 of culturing, No Antigen Value 2149): 2256 RLU | Proliferation (luminescent ATP assay), Mean (T-cell line 165-05G, 30 μg/mL antigen, Day 50 of culturing, No Antigen Value 2149): 2137 RLU | Proliferation (luminescent ATP assay), Mean (T-cell line 165-B5G, 1 μg/mL antigen, Day 81 of culturing, No Antigen Value 2432): 4288 RLU | Proliferation (luminescent ATP assay), Mean (T-cell line 165-B5G, 1.25 μg/mL antigen, Day 55 of culturing, No Antigen Value 846): 1054 RLU | Proliferation (luminescent ATP assay), Mean (T-cell line 165-B5G, 2.5 μg/mL antigen, Day 55 of culturing, No Antigen Value 846): 1159 RLU | Proliferation (luminescent ATP assay), Mean (T-cell line 165-B5G, 3 μg/mL antigen, Day 81 of culturing, No Antigen Value 2432): 5153 RLU | Proliferation (luminescent ATP assay), Mean (T-cell line 165-B5G, 5 μg/mL antigen, Day 55 of culturing, No Antigen Value 846): 1687 RLU | Proliferation (luminescent ATP assay), Mean (T-cell line 165-B5G, 10 μg/mL antigen, Day 55 of culturing, No Antigen Value 846): 3589 RLU | Proliferation (luminescent ATP assay), Mean (T-cell line 165-B5G, 10 μg/mL antigen, Day 81 of culturing, No Antigen Value 2432): 11847 RLU | Proliferation (luminescent ATP assay), Mean (T-cell line 165-B5G, 30 μg/mL antigen, Day 81 of culturing, No Antigen Value 2432): 11416 RLU | Proliferation (luminescent ATP assay), Mean (T-cell line 165-C5G, 1.25 μg/mL antigen, autologous B-LCL): 485 RLU | Proliferation (luminescent ATP assay), Mean (T-cell line 165-C5G, 2.5 μg/mL antigen, autologous B-LCL): 552 RLU | Proliferation (luminescent ATP assay), Mean (T-cell line 165-C5G, 5 μg/mL antigen, autologous B-LCL): 585 RLU | Proliferation (luminescent ATP assay), Mean (T-cell line 165-C5G, 10 μg/mL antigen, autologous B-LCL): 579 RLU | Proliferation (luminescent ATP assay), Mean (T-cell line 165-E7G, 1 μg/mL antigen, Day 81 of culturing, No Antigen Value 2145): 3992 RLU | Proliferation (luminescent ATP assay), Mean (T-cell line 165-E7G, 1.25 μg/mL antigen, autologous B-LCL, Day 55): 2983 RLU | Proliferation (luminescent ATP assay), Mean (T-cell line 165-E7G, 2.5 μg/mL antigen, autologous B-LCL, Day 55): 3783 RLU | Proliferation (luminescent ATP assay), Mean (T-cell line 165-E7G, 3 μg/mL antigen, Day 81 of culturing, No Antigen Value 2145): 5133 RLU | Proliferation (luminescent ATP assay), Mean (T-cell line 165-E7G, 5 μg/mL antigen, autologous B-LCL, Day 55): 5821 RLU | Proliferation (luminescent ATP assay), Mean (T-cell line 165-E7G, 10 μg/mL antigen, Day 81 of culturing, No Antigen Value 2145): 12006 RLU | Proliferation (luminescent ATP assay), Mean (T-cell line 165-E7G, 10 μg/mL antigen, autologous B-LCL, Day 55): 5710 RLU | Proliferation (luminescent ATP assay), Mean (T-cell line 165-E7G, 30 μg/mL antigen, Day 81 of culturing, No Antigen Value 2145): 12836 RLU | Proliferation (luminescent ATP assay), Mean (T-cell line 165-E9G, 1 μg/mL antigen, Day 50 of culturing, No Antigen Value 1742): 1630 RLU | Proliferation (luminescent ATP assay), Mean (T-cell line 165-E9G, 1.25 μg/mL antigen, autologous B-LCL): 142 RLU | Proliferation (luminescent ATP assay), Mean (T-cell line 165-E9G, 2.5 μg/mL antigen, autologous B-LCL): 195 RLU | Proliferation (luminescent ATP assay), Mean (T-cell line 165-E9G, 3 μg/mL antigen, Day 50 of culturing, No Antigen Value 1742): 1600 RLU | Proliferation (luminescent ATP assay), Mean (T-cell line 165-E9G, 5 μg/mL antigen, autologous B-LCL): 233 RLU | Proliferation (luminescent ATP assay), Mean (T-cell line 165-E9G, 10 μg/mL antigen, autologous B-LCL): 312 RLU | Proliferation (luminescent ATP assay), Mean (T-cell line 165-E9G, 30 μg/mL antigen, Day 50 of culturing, No Antigen Value 1742): 2152 RLU | Proliferation (luminescent ATP assay), Mean (T-cell line 165-E9G, 10 μpg/mL antigen, Day 50 of culturing, No Antigen Value 1742): 2341 RLU | Proliferation (luminescent ATP assay), Mean (T-cell line 165-F5G, 1.25 μg/mL antigen, autologous B-LCL): 131 RLU | Proliferation (luminescent ATP assay), Mean (T-cell line 165-F5G, 2.5 μg/mL antigen, autologous B-LCL): 143 RLU | Proliferation (luminescent ATP assay), Mean (T-cell line 165-F5G, 5 μg/mL antigen, autologous B-LCL): 176 RLU | Proliferation (luminescent ATP assay), Mean (T-cell line 165-F5G, 10 μg/mL antigen, autologous B-LCL): 110 RLU | Proliferation (luminescent ATP assay), Mean (T-cell line 165-F10G, 1 μg/mL antigen, Day 50 of culturing, No Antigen Value 3752): 3363 RLU | Proliferation (luminescent ATP assay), Mean (T-cell line 165-F10G, 1.25 μg/mL antigen, autologous B-LCL): 1012 RLU | Proliferation (luminescent ATP assay), Mean (T-cell line 165-F10G, 2.5 μg/mL antigen, autologous B-LCL): 1389 RLU | Proliferation (luminescent ATP assay), Mean (T-cell line 165-F10G, 3 μg/mL antigen, Day 50 of culturing, No Antigen Value 3752): 3061 RLU | Proliferation (luminescent ATP assay), Mean (T-cell line 165-F10G, 5 μg/mL antigen, autologous B-LCL): 2620 RLU | Proliferation (luminescent ATP assay), Mean (T-cell line 165-F10G, 10 μg/mL antigen, Day 50 of culturing, No Antigen Value 3752): 4823 RLU | Proliferation (luminescent ATP assay), Mean (T-cell line 165-F10G, 10 μg/mL antigen, autologous B-LCL): 2505 RLU | Proliferation (luminescent ATP assay), Mean (T-cell line 165-F10G, 30 μg/mL antigen, Day 50 of culturing, No Antigen Value 3752): 4568 RLU
